target: T1, mTOR (Homo sapiens, UniProt P42345); assay: mTOR HTR-FRET assay; type: biochemical; details: read-out: Act. Level (IC50 in mTor HTR-FRET assay)
T1 construct: purchased Invitrogen PR8683A
Procedure: The following is an example of an assay that can be used to determine the mTOR inhibitory activity of a test compound. Heteroaryl Compounds were dissolved in DMSO and prepared as 10 mM stocks and diluted appropriately for the experiments. Reagents were prepared as follows:
“Simple TOR buffer” (used to dilute high glycerol TOR fraction): 10 mM Tris pH 7.4, 100 mM NaCl, 0.1% Tween-20, 1 mM DTT. Invitrogen mTOR (cat #PR8683A) was diluted in this buffer to an assay concentration of 0.200 μg/mL.
To 20 μL of the Simple mTor buffer is added 0.5 μL of test compound in DMSO. To initiate the reaction 5 μL of ATP/Substrate solution was added to 20 μL of the Simple TOR buffer solution (control) and to the compound solution prepared above.

T1 sequence (P42345 1360-2549 limits assumed): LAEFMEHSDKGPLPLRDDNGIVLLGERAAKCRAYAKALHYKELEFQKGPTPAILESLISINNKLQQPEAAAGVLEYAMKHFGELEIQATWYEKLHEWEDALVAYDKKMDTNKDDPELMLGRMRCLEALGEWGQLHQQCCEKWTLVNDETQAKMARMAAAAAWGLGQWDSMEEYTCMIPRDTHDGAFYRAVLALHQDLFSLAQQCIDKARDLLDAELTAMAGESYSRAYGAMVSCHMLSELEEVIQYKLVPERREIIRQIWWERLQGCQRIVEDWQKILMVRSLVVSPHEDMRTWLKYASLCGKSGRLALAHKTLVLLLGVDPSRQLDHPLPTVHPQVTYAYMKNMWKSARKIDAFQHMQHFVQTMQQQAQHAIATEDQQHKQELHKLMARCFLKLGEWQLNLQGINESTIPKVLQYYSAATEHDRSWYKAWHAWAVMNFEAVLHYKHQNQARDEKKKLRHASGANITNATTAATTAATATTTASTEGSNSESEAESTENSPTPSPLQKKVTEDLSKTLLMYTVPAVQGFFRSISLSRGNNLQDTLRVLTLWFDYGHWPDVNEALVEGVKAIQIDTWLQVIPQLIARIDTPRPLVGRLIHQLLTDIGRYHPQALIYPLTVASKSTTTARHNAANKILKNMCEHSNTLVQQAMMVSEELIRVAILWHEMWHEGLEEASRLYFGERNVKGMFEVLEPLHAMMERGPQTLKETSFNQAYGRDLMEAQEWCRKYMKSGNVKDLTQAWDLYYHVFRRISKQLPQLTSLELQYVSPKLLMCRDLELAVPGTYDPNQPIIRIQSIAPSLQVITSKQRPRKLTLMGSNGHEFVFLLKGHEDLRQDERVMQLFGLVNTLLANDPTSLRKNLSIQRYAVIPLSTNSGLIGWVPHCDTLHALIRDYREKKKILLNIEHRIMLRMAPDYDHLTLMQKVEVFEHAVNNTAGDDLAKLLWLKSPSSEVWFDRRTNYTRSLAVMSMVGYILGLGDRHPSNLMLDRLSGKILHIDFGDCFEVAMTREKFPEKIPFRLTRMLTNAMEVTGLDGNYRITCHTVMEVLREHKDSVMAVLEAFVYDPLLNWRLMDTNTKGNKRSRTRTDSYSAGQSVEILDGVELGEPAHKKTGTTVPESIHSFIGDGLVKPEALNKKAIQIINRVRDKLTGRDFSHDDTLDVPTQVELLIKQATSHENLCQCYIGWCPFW

`COCCN1CC(=O)Nc2ncc(-c3cnc(C(N)=O)cc3C)nc21` [Example 32, 5-(8-(2-methoxyethyl)-6-oxo-5,6,7,8-tetrahydropyrazino[2,3-b]pyrazin-2-yl)-4-methylpicolinamide] was tested. Which IC50 did it give?
Its IC50 is 0.005 to 250 nM.

Which IC50 does the source give for `COCCN1C(=O)CNc2ncc(-c3ccc4cn[nH]c4c3)nc21` [Example 189, 7-(1H-indazol-6-yl)-1-(2-methoxyethyl)-3,4-dihydropyrazino[2,3-b]pyrazin-2(1H)-one] here?
Its IC50 is 1000 to 10000 nM.

`O=C1CN(C2CCOCC2)c2nc(-c3ccc(-c4nc[nH]n4)nc3)cnc2N1` [Example 21, 6-(6-(1H-1,2,4-triazol-3-yl)pyridin-3-yl)-4-(tetrahydro-2H-pyran-4-yl)-3,4-dihydropyrazino[2,3-b]pyrazin-2(1H)-one] was tested. Which IC50 did it give?
The IC50 was 0.005 to 250 nM.

With `Cc1cc(-c2cnc3c(n2)N(Cc2cccc(C(F)(F)F)c2)CC(=O)N3)cc2nc(N)[nH]c12` [Example 136, 6-(2-amino-7-methyl-1H-benzo[d]imidazol-5-yl)-4-(3-(trifluoromethyl)benzyl)-3,4-dihydropyrazino[2,3-b]pyrazin-2(1H)-one] as the compound, how does the IC50 read?
Its IC50 is 500 to 1000 nM.

How did the IC50 turn out when `CCN1c2nc(-c3ccc(-c4nnc[nH]4)cc3C)cnc2NC(=O)C1(C)C` [Example 72, 4-ethyl-3,3-dimethyl-6-(2-methyl-4-(4H-1,2,4-triazol-3-yl)phenyl)-3,4-dihydropyrazino[2,3-b]pyrazin-2(1H)-one] was run?
The IC50 was 0.005 to 250 nM.

Which IC50 does the source give for `C[C@@H]1Nc2ncc(-c3ccc(C(C)(C)O)nc3)nc2N(CCC2CCOCC2)C1=O` [Example 267, (S)-7-(6-(2-hydroxypropan-2-yl)pyridin-3-yl)-3-methyl-1-(2-(tetrahydro-2H-pyran-4-yl)ethyl)-3,4-dihydropyrazino[2,3-b]pyrazin-2(1H)-one] here?
Its IC50 is 500 to 1000 nM.

Which IC50 does the source give for `CC(C)(O)c1ccc(-c2cnc3c(n2)N2CCOCC2C(=O)N3)cn1` (centres unmarked) [Example 133, 9-[6-(1-hydroxy-isopropyl)-3-pyridyl]-6,11,4a-trihydromorpholino[4,3-e]pyrazino[2,3-b]pyrazin-5-one] here?
Its IC50 is 500 to 1000 nM.

Which IC50 does the source give for `CCN1C(=O)CNc2ncc(-c3cccc4[nH]ncc34)nc21` [Example 194, 1-ethyl-7-(1H-indazol-4-yl)-3,4-dihydropyrazino[2,3-b]pyrazin-2(1H)-one] here?
The IC50 was 1000 to 10000 nM.

Which IC50 does the source give for `O=C1CN(CCC2CCOCC2)c2nc(-c3ccc4cc[nH]c4c3)cnc2N1` [Example 44, 6-(1H-indol-6-yl)-4-(2-(tetrahydro-2H-pyran-4-yl)ethyl)-3,4-dihydropyrazino[2,3-b]pyrazin-2(1H)-one] here?
Its IC50 is 250 to 500 nM.

How did the IC50 turn out when `CO[C@H]1CC[C@H](N2C(=O)CNc3ncc(-c4ccc(-c5nnc[nH]5)nc4C)nc32)C1` [Example 229, 1-((1S,3S)-3-methoxycyclopentyl)-7-(2-methyl-6-(4H-1,2,4-triazol-3-yl)pyridin-3-yl)-3,4-dihydropyrazino[2,3-b]pyrazin-2(1H)-one] was run?
The IC50 was 0.005 to 250 nM.

`Cc1cc(C(N)=O)ncc1-c1cnc2c(n1)N(CC1CCOCC1)C(=O)CN2` [Example 199, 4-methyl-5-(7-oxo-8-((tetrahydro-2H-pyran-4-yl)methyl)-5,6,7,8-tetrahydropyrazino[2,3-b]pyrazin-2-yl)picolinamide] was tested. Which IC50 did it give?
Its IC50 is 1000 to 10000 nM.

How did the IC50 turn out when `O=C1CN(CCC2CCOCC2)c2nc(-c3cnc4nc[nH]c4c3)cnc2N1` [Example 36, 6-(1H-imidazo[4,5-b]pyridin-6-yl)-4-(2-(tetrahydro-2H-pyran-4-yl)ethyl)-3,4-dihydropyrazino[2,3-b]pyrazin-2(1H)-one] was run?
Its IC50 is 500 to 1000 nM.

With `CO[C@@H]1CC[C@@H](N2C(=O)CNc3ncc(-c4ccc(-c5nnc[nH]5)nc4C)nc32)C1` [Example 227, 1-((1R,3R)-3-methoxycyclopentyl)-7-(2-methyl-6-(4H-1,2,4-triazol-3-yl)pyridin-3-yl)-3,4-dihydropyrazino[2,3-b]pyrazin-2(1H)-one] as the compound, how does the IC50 read?
The IC50 was 0.005 to 250 nM.

Which IC50 does the source give for `CC(C)(O)c1ccc(-c2cnc3c(n2)N(CCC2CCOCC2)C(C)(C)C(=O)N3)cn1` [Example 85, 6-(6-(2-hydroxypropan-2-yl)pyridin-3-yl)-3,3-dimethyl-4-(2-(tetrahydro-2H-pyran-4-yl)ethyl)-3,4-dihydropyrazino[2,3-b]pyrazin-2(1H)-one] here?
Its IC50 is 500 to 1000 nM.

`CO[C@@H]1CC[C@@H](N2CC(=O)Nc3ncc(-c4ccc(C(C)(C)O)nc4)nc32)C1` [Example 56, 6-(6-(2-hydroxypropan-2-yl)pyridin-3-yl)-4-((1R,3R)-3-methoxycyclopentyl)-3,4-dihydropyrazino[2,3-b]pyrazin-2(1H)-one] was tested. Which IC50 did it give?
The IC50 was 0.005 to 250 nM.

With `CC(C)(O)c1ccc(-c2cnc3c(n2)N(CC2CCCC2)CC(=O)N3)cn1` [Example 104, 4-(cyclopentylmethyl)-6-(6-(2-hydroxypropan-2-yl)pyridin-3-yl)-3,4-dihydropyrazino[2,3-b]pyrazin-2(1H)-one] as the compound, how does the IC50 read?
Its IC50 is 0.005 to 250 nM.

For `O=C1CN(CCC2CCOCC2)c2nc(-c3cccc(-c4ncn[nH]4)c3)cnc2N1` [Example 31, 6-(3-(1H-1,2,4-triazol-5-yl)phenyl)-4-(2-(tetrahydro-2H-pyran-4-yl)ethyl)-3,4-dihydropyrazino[2,3-b]pyrazin-2(1H)-one], which IC50 is on record?
Its IC50 is 1000 to 10000 nM.

Which IC50 does the source give for `CO[C@@H]1CC[C@H](CN2CC(=O)Nc3ncc(-c4ccc(-c5nnc[nH]5)nc4C)nc32)C1` [Example 47, 4-(((1S,3R)-3-methoxycyclopentyl)methyl)-6-(2-methyl-6-(4H-1,2,4-triazol-3-yl)pyridin-3-yl)-3,4-dihydropyrazino[2,3-b]pyrazin-2(1H)-one] here?
The IC50 was 0.005 to 250 nM.

How did the IC50 turn out when `Cc1c(-c2cnc3c(n2)N(C2CCOCC2)CC(=O)N3)ccc(-c2nc[nH]n2)c1F` [Example 27, 6-(3-fluoro-2-methyl-4-(1H-1,2,4-triazol-3-yl)phenyl)-4-(tetrahydro-2H-pyran-4-yl)-3,4-dihydropyrazino[2,3-b]pyrazin-2(1H)-one] was run?
Its IC50 is 0.005 to 250 nM.

`CO[C@H]1CC[C@@H](CN2CC(=O)Nc3ncc(-c4ccc(-c5nnc[nH]5)nc4C)nc32)C1` [Example 46, 4-(((1R,3S)-3-methoxycyclopentyl)methyl)-6-(2-methyl-6-(4H-1,2,4-triazol-3-yl)pyridin-3-yl)-3,4-dihydropyrazino[2,3-b]pyrazin-2(1H)-one] was tested. Which IC50 did it give?
The IC50 was 0.005 to 250 nM.

For `CO[C@H]1C[C@H]2C(=O)Nc3ncc(-c4ccc(-c5nnc[nH]5)cc4C)nc3N2C1` [Example 113, 8-(4-(4H-1,2,4-triazol-3-yl)-2-methylphenyl)(2S,3aS)-2-methoxy-5,10,3a-trihydropyrazino[2,3-b]pyrrolidino[1,2-e]pyrazin-4-one], which IC50 is on record?
Its IC50 is 250 to 500 nM.

For `Cc1cc(-c2nnc[nH]2)ccc1-c1cnc2c(n1)N1CCN(C)CC1C(=O)N2` (centres unmarked) [Example 118, 9-(4-(4H-1,2,4-triazol-3-yl)-2-methylphenyl)-3-methyl-6,11,4a-trihydropiperazino[1,2-e]pyrazino[2,3-b]pyrazin-5-one], which IC50 is on record?
Its IC50 is 500 to 1000 nM.

How did the IC50 turn out when `CO[C@@H]1CC[C@H](CN2CC(=O)Nc3ncc(-c4ccc(C(C)(C)O)nc4)nc32)C1` [Example 58, 6-(6-(2-hydroxypropan-2-yl)pyridin-3-yl)-4-(((1S,3R)-3-methoxycyclopentyl)methyl)-3,4-dihydropyrazino[2,3-b]pyrazin-2(1H)-one] was run?
The IC50 was 0.005 to 250 nM.

Which IC50 does the source give for `Nc1ncc(-c2cnc3c(n2)N(CCC2CCOCC2)C(=O)CN3)cn1` [Example 182, 7-(2-aminopyrimidin-5-yl)-1-(2-(tetrahydro-2H-pyran-4-yl)ethyl)-3,4-dihydropyrazino[2,3-b]pyrazin-2(1H)-one] here?
Its IC50 is 250 to 500 nM.

For `CC(C)(C)CN1CC(=O)Nc2ncc(-c3ccc(C(C)(C)O)nc3)nc21` [Example 105, 6-(6-(2-hydroxypropan-2-yl)pyridin-3-yl)-4-neopentyl-3,4-dihydropyrazino[2,3-b]pyrazin-2(1H)-one], which IC50 is on record?
Its IC50 is 250 to 500 nM.

For `Cc1cc(-c2nc[nH]n2)ncc1-c1cnc2c(n1)N(CCC1CCOCC1)C(=O)CN2` [Example 260, 7-(4-methyl-6-(1H-1,2,4-triazol-3-yl)pyridin-3-yl)-1-(2-(tetrahydro-2H-pyran-4-yl)ethyl)-3,4-dihydropyrazino[2,3-b]pyrazin-2(1H)-one], which IC50 is on record?
Its IC50 is 0.005 to 250 nM.

For `CO[C@H]1CC[C@H](N2CC(=O)Nc3ncc(-c4ccc(C(C)(C)O)cc4)nc32)CC1` [Example 86, 6-(4-(2-hydroxypropan-2-yl)phenyl)-4-(trans-4-methoxycyclohexyl)-3,4-dihydropyrazino[2,3-b]pyrazin-2(1H)-one], which IC50 is on record?
Its IC50 is 0.005 to 250 nM.

With `Cc1cc(-c2nnc[nH]2)ccc1-c1cnc2c(n1)NC(=O)CN2` [Example 239, 7-(2-methyl-4-(4H-1,2,4-triazol-3-yl)phenyl)-3,4-dihydropyrazino[2,3-b]pyrazin-2(1H)-one] as the compound, how does the IC50 read?
The IC50 was 0.005 to 250 nM.

With `CO[C@H]1CC[C@H](CN2C(=O)CNc3ncc(-c4cnc(-c5nc[nH]n5)cc4C)nc32)CC1` [Example 204, 1-((trans-4-methoxycyclohexyl)methyl)-7-(4-methyl-6-(1H-1,2,4-triazol-3-yl)pyridin-3-yl)-3,4-dihydropyrazino[2,3-b]pyrazin-2(1H)-one] as the compound, how does the IC50 read?
The IC50 was 0.005 to 250 nM.

How did the IC50 turn out when `COCCN1CC(=O)Nc2ncc(-c3cnc(-c4nc[nH]n4)cc3C)nc21` [Example 30, 4-(2-methoxyethyl)-6-(4-methyl-6-(1H-1,2,4-triazol-3-yl)pyridin-3-yl)-3,4-dihydropyrazino[2,3-b]pyrazin-2(1H)-one] was run?
Its IC50 is 0.005 to 250 nM.

With `Cc1cc(-c2cnc3c(n2)N(CC2CCOCC2)C(=O)CN3)cc2[nH]c(N)nc12` [Example 264, 7-(2-amino-4-methyl-1H-benzo[d]imidazol-6-yl)-1-((tetrahydro-2H-pyran-4-yl)methyl)-3,4-dihydropyrazino[2,3-b]pyrazin-2(1H)-one] as the compound, how does the IC50 read?
The IC50 was 0.005 to 250 nM.

Which IC50 does the source give for `Cc1cc(-c2nnc[nH]2)c(F)cc1-c1cnc2c(n1)N(CCC1CCOCC1)C(=O)CN2` [Example 247, 7-(5-fluoro-2-methyl-4-(4H-1,2,4-triazol-3-yl)phenyl)-1-(2-(tetrahydro-2H-pyran-4-yl)ethyl)-3,4-dihydropyrazino[2,3-b]pyrazin-2(1H)-one] here?
Its IC50 is 0.005 to 250 nM.

Reference: patent US11292796B2 (SIGNAL PHARMACEUTICALS, LLC, priority 2008, dated 2022)
